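1) Cells in 96-well plates. 2) Compound, 48 h, 5 concentrations. 3) Linear interpolation between surrounding doses. 4) Unreached endpoint = highest concentration. GI50 is the concentration that inhibits growth by half.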 Calls of active or inactive are those of the source. Rule as the data show it: active = GI50 up to about 1.1 µM and inactive = higher.

Ten molecules from ChEMBL document CHEMBL1201862, “PubChem BioAssay data set” (2004) can be followed below.

Test systems include 786-0; A549; ACHN; BT-549; CCRF-CEM; DU-145; HCT-116; HL-60; IGROV-1; MCF7; OVCAR-3; PC-3; SF-268; SF-295; SK-OV-3; SN12C; SNB-19; SR; TK-10; OVCAR-4.
Experiment in all cases: NCI tumour cell line growth inhibition, 48 h

On to `Oc1ccc[nH]c1=[Se]`, for which the GI50 was 16 µM (inactive) in the assay with 786-0; 32.9 µM (inactive) in the assay with A549; 48.6 µM (inactive) in the assay with ACHN; 55.1 µM (inactive) in the assay on BT-549; 35.3 µM (inactive) in the assay with CCRF-CEM; 62.2 µM (inactive) in the assay on DU-145. The GI50 in the assay with HCT-116 was 33.9 µM (inactive); in the assay with HL-60 it was > 100 µM (inactive); in the assay with IGROV-1, 66.7 µM (inactive); in the assay on MCF7 it was 65.5 µM (inactive); with OVCAR-3, > 100 µM (inactive); in the assay on PC-3, > 100 µM (inactive). In addition, the GI50 is 76.2 µM (inactive) in the assay on SF-268; 29.3 µM (inactive) with SF-295; 87.1 µM (inactive) with SK-OV-3; 48.2 µM (inactive) in the assay with SN12C; 85.9 µM (inactive) in the assay with SNB-19; 36.3 µM (inactive) with SR. For the same molecule, in the assay on TK-10, the GI50 is 55.3 µM (inactive).

Take `CS(=O)(=O)Nc1ccc(Nc2c3ccccc3nc3ccccc23)cc1`: the GI50 with 786-0 was 3.1 µM (inactive); with A549, 0.325 µM (active); with ACHN, 0.381 µM (active); with BT-549, 11 µM (inactive); with CCRF-CEM, 0.459 µM (active); in the assay on DU-145, 0.355 µM (active). Moreover, the GI50 with HCT-116 is 1.83 µM (inactive); in the assay with HL-60, 0.389 µM (active); in the assay on IGROV-1 it was 2.09 µM (inactive); in the assay on MCF7, 1.07 µM (active); with OVCAR-3, 4.93 µM (inactive); in the assay with OVCAR-4, 4.17 µM (inactive). For the same molecule, the GI50 in the assay on PC-3 is 2.62 µM (inactive); in the assay with SF-268 it was 2.78 µM (inactive); in the assay on SF-295, 1.66 µM (inactive); in the assay on SK-OV-3, 1.89 µM (inactive); with SN12C, 0.714 µM (active); in the assay on SNB-19 it was 2.03 µM (inactive). For the same molecule, the GI50 in the assay with SR is 0.0789 µM (active); with TK-10 it was 2.57 µM (inactive).

For the molecule `S=c1sc2c(s1)SCc1cccc(n1)CSc1sc(=S)sc1SCc1cccc(n1)CS2`, the GI50 in the assay with 786-0, in the assay on A549, with ACHN, in the assay with BT-549, in the assay with CCRF-CEM and in the assay on DU-145 was > 100 µM (inactive) each time. For the same molecule, the GI50 in the assay on HCT-116 is > 100 µM (inactive); with HL-60 it was > 100 µM (inactive); in the assay on IGROV-1, > 100 µM (inactive); in the assay on MCF7, > 10 µM (inactive); in the assay with OVCAR-3, > 100 µM (inactive); in the assay on PC-3 it was > 100 µM (inactive). The GI50 in the assay on SF-268, in the assay with SF-295, in the assay with SK-OV-3, in the assay with SN12C, with SNB-19 and with SR was > 100 µM (inactive) in each case. In the assay on TK-10, the GI50 is > 100 µM (inactive).

Regarding `COC(=O)C1(C(=O)OC)N=C(C)OC1C(C)C` (configuration not stated), the GI50 with 786-0, with A549, with ACHN, with BT-549, in the assay with CCRF-CEM and in the assay on DU-145 was > 100 µM (inactive) in each case. In addition, the GI50 is > 100 µM (inactive) in the assay with HCT-116; 37.5 µM (inactive) with HL-60; > 100 µM (inactive) in the assay on MCF7; > 100 µM (inactive) in the assay on OVCAR-3; > 100 µM (inactive) with OVCAR-4; > 100 µM (inactive) in the assay with PC-3. Moreover, the GI50 in the assay with SF-295, in the assay with SK-OV-3, with SN12C, with SNB-19, in the assay with SR and in the assay on TK-10 was > 100 µM (inactive) in each case.

For the molecule `O=C(Nc1ccccc1)c1cc(S(=O)(=O)N2CCNC2=O)c(S)cc1Cl`, the GI50 in the assay with 786-0, in the assay with A549, with ACHN, in the assay on BT-549, in the assay with CCRF-CEM and in the assay with DU-145 was > 100 µM (inactive) throughout. The GI50 in the assay with HCT-116, with HL-60, with IGROV-1, in the assay on MCF7, with OVCAR-3 and with OVCAR-4 was > 100 µM (inactive) each time. Further, the GI50 in the assay on PC-3, in the assay on SF-268, with SF-295, in the assay on SK-OV-3, in the assay on SN12C and in the assay with SNB-19 was > 100 µM (inactive) in each case. Moreover, the GI50 in the assay with SR and with TK-10 was > 100 µM (inactive) each time.

Take `NC(=O)C(Nc1ccc(Cl)cc1)c1cc2cc(Br)ccc2nc1Cl` (configuration not stated): the GI50 in the assay on 786-0 was > 50 µM (inactive); with A549 it was 30.2 µM (inactive); with ACHN, > 50 µM (inactive); with BT-549, > 50 µM (inactive); in the assay with CCRF-CEM, 23.8 µM (inactive); in the assay on DU-145, > 50 µM (inactive). The GI50 with HCT-116 was > 50 µM (inactive); with HL-60, > 50 µM (inactive); in the assay with IGROV-1 it was 17.6 µM (inactive); in the assay with MCF7, 40.8 µM (inactive); with OVCAR-3, > 50 µM (inactive); in the assay on OVCAR-4, > 50 µM (inactive). Further, the GI50 in the assay with PC-3, in the assay with SF-268, in the assay with SF-295, in the assay with SK-OV-3, in the assay with SN12C and with SNB-19 was > 50 µM (inactive) in each case. Moreover, the GI50 in the assay with SR is 18.9 µM (inactive); in the assay on TK-10, 19.9 µM (inactive).

Turning to `COc1ccc(CN(Cc2ccc(OC)cc2)C(=O)CC2(O)C=CCC2)cc1` (configuration not stated), the GI50 was > 100 µM (inactive) in the assay with 786-0; 46.2 µM (inactive) with A549; > 100 µM (inactive) in the assay on ACHN; > 100 µM (inactive) in the assay on BT-549; 47.6 µM (inactive) in the assay with CCRF-CEM; > 100 µM (inactive) with DU-145. In addition, the GI50 was 55.3 µM (inactive) in the assay with HCT-116; 34.8 µM (inactive) with HL-60; > 100 µM (inactive) in the assay with IGROV-1; 43.9 µM (inactive) with MCF7; 98.2 µM (inactive) with OVCAR-3; 80 µM (inactive) with OVCAR-4. The GI50 in the assay with PC-3 was 28 µM (inactive); with SF-295, 56.9 µM (inactive); in the assay on SK-OV-3 it was > 100 µM (inactive); in the assay on SN12C, > 100 µM (inactive); in the assay on SNB-19, 71.9 µM (inactive); in the assay on SR it was 36.1 µM (inactive). In addition, the GI50 in the assay on TK-10 was > 100 µM (inactive).

For the molecule `Cc1cccc2c1Oc1cc(Cl)ccc1C2NC(=O)CCN1CCN(CCO)CC1` (configuration not stated), the GI50 is 13.6 µM (inactive) in the assay on 786-0; 11.5 µM (inactive) in the assay on A549; 15.1 µM (inactive) with BT-549; 17.7 µM (inactive) in the assay on CCRF-CEM; 27.2 µM (inactive) in the assay on DU-145; 18.6 µM (inactive) in the assay on HCT-116. Moreover, the GI50 in the assay on HL-60 was 9.46 µM (inactive); in the assay with IGROV-1, 22.1 µM (inactive); with MCF7, 15.2 µM (inactive); in the assay on OVCAR-3 it was 17.7 µM (inactive); with OVCAR-4, 16 µM (inactive); in the assay on PC-3, 14.5 µM (inactive). The GI50 in the assay on SF-268 was 23.3 µM (inactive); with SF-295, 18.3 µM (inactive); in the assay on SK-OV-3 it was 25.9 µM (inactive); in the assay on SN12C, 15 µM (inactive); with SNB-19 it was 22 µM (inactive); in the assay with SR it was 21.8 µM (inactive). For the same molecule, the GI50 with TK-10 was > 10 µM (inactive).

Consider `COc1ccc(C2c3cc4c(cc3OC(NNc3ccccc3)C2C)OCO4)cc1` (configuration not stated), for which the GI50 is 22.1 µM (inactive) in the assay with 786-0; 4.09 µM (inactive) in the assay on A549; 1.93 µM (inactive) in the assay on ACHN; 20.4 µM (inactive) with BT-549; 4.01 µM (inactive) in the assay with CCRF-CEM; 5.52 µM (inactive) with DU-145. Moreover, the GI50 with HCT-116 is 4.44 µM (inactive); with HL-60, 5.25 µM (inactive); in the assay with IGROV-1 it was 7.31 µM (inactive); in the assay with MCF7, 4.04 µM (inactive); in the assay on OVCAR-3 it was 4.82 µM (inactive); in the assay with PC-3 it was 4.8 µM (inactive). For the same molecule, the GI50 was 20.3 µM (inactive) in the assay with SF-268; 2.08 µM (inactive) in the assay with SF-295; > 100 µM (inactive) with SK-OV-3; 11 µM (inactive) in the assay with SN12C; 40.7 µM (inactive) with SNB-19; 1.71 µM (inactive) with SR. In addition, the GI50 in the assay on TK-10 is 8.97 µM (inactive).

On to `COc1ccc(-n2c(=O)c3nc[nH]c3n(-c3ccc(OC)cc3)c2=S)cc1`, for which the GI50 in the assay with 786-0, in the assay on A549, in the assay with ACHN, in the assay on BT-549, in the assay on CCRF-CEM and in the assay with DU-145 was > 100 µM (inactive) throughout. Also, the GI50 in the assay on HCT-116, in the assay with HL-60, with IGROV-1, in the assay with MCF7, in the assay on OVCAR-3 and with OVCAR-4 was > 100 µM (inactive) each time. Moreover, the GI50 in the assay on PC-3, with SF-268, in the assay on SF-295, with SK-OV-3, in the assay on SN12C and with SR was > 100 µM (inactive) each time. The GI50 in the assay with TK-10 is > 100 µM (inactive).
